Test results reported in ChEMBL document CHEMBL3785084, “Rational modification of the lead molecule: Enhancement in the anticancer and dihydrofolate reductase inhibitory activity” (Bioorg Med Chem Lett, 2016).
Active and inactive are the calls of the source. The calls are words filed in the database; no cut-off is given here.

Assays:
[1] = target: T1, Dihydrofolate reductase (Homo sapiens, UniProt P00374); assay: Inhibition of human DHFR assessed as conversion of dihydrofolic acid to tetrahydrfolic acid by enzyme immunoassay in presence of NADPH
T1 sequence (P00374 whole entry): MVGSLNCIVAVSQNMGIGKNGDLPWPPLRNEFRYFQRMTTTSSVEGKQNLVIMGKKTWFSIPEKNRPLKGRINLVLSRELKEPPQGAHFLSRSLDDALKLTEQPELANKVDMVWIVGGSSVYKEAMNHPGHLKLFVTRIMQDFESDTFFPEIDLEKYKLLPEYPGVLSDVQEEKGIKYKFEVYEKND

[2] = test system: SF-539; settings: Homo sapiens, 10^-5 M
Description: Cytotoxicity against human SF539 cells assessed as tumor growth inhibition at 10^-5 M after 48 hrs by sulforhodamine B assay

[3] = test system: DU-145; settings: Homo sapiens, 10^-5 M
Description: Cytotoxicity against human DU145 cells assessed as tumor growth inhibition at 10^-5 M after 48 hrs by sulforhodamine B assay

[4] = test system: SF-295; settings: Homo sapiens, 10^-5 M
Description: Cytotoxicity against human SF295 cells assessed as tumor growth inhibition at 10^-5 M after 48 hrs by sulforhodamine B assay

[5] = test system: UACC-62; settings: Homo sapiens, 10^-5 M
Description: Cytotoxicity against human UACC62 cells assessed as tumor growth inhibition at 10^-5 M after 48 hrs by sulforhodamine B assay

[6] = test system: NCI-H460; settings: Homo sapiens, 10^-5 M
Description: Cytotoxicity against human NCI-H460 cells assessed as tumor growth inhibition at 10^-5 M after 48 hrs by sulforhodamine B assay

[7] = test system: SNB-19; settings: Homo sapiens, 10^-5 M
Description: Cytotoxicity against human SNB19 cells assessed as tumor growth inhibition at 10^-5 M after 48 hrs by sulforhodamine B assay

[8] = test system: NCI-H226; settings: Homo sapiens, 10^-5 M
Description: Cytotoxicity against human NCI-H226 cells assessed as tumor growth inhibition at 10^-5 M after 48 hrs by sulforhodamine B assay

[9] = test system: RXF 393; settings: Homo sapiens, 10^-5 M
Description: Cytotoxicity against human RXF393 cells assessed as tumor growth inhibition at 10^-5 M after 48 hrs by sulforhodamine B assay

[10] = test system: SNB-75; settings: Homo sapiens, 10^-5 M
Description: Cytotoxicity against human SNB75 cells assessed as tumor growth inhibition at 10^-5 M after 48 hrs by sulforhodamine B assay

[11] = test system: LOX IMVI; settings: Homo sapiens, 10^-5 M
Description: Cytotoxicity against human LOXIMVI cells assessed as tumor growth inhibition at 10^-5 M after 48 hrs by sulforhodamine B assay

[12] = test system: U-251; settings: Homo sapiens, 10^-5 M
Description: Cytotoxicity against human U251 cells assessed as tumor growth inhibition at 10^-5 M after 48 hrs by sulforhodamine B assay

[13] = test system: OVCAR-8; settings: Homo sapiens, 10^-5 M
Description: Cytotoxicity against human OVCAR8 cells assessed as tumor growth inhibition at 10^-5 M after 48 hrs by sulforhodamine B assay

[14] = test system: MCF7; settings: Homo sapiens, 10^-5 M
Description: Cytotoxicity against human MCF7 cells assessed as tumor growth inhibition at 10^-5 M after 48 hrs by sulforhodamine B assay

[15] = test system: EKVX; settings: Homo sapiens, 10^-5 M
Description: Cytotoxicity against human EKVX cells assessed as tumor growth inhibition at 10^-5 M after 48 hrs by sulforhodamine B assay

[16] = test system: UACC-257; settings: Homo sapiens, 10^-5 M
Description: Cytotoxicity against human UACC257 cells assessed as tumor growth inhibition at 10^-5 M after 48 hrs by sulforhodamine B assay

[17] = test system: HL-60(TB); settings: Homo sapiens, 10^-5 M
Description: Cytotoxicity against human HL-60(TB) cells assessed as tumor growth inhibition at 10^-5 M after 48 hrs by sulforhodamine B assay

[18] = test system: M14; settings: Homo sapiens, 10^-5 M
Description: Cytotoxicity against human M14 cells assessed as tumor growth inhibition at 10^-5 M after 48 hrs by sulforhodamine B assay

[19] = test system: KM12; settings: Homo sapiens, 10^-5 M
Description: Cytotoxicity against human KM12 cells assessed as tumor growth inhibition at 10^-5 M after 48 hrs by sulforhodamine B assay

[20] = test system: K562; settings: Homo sapiens, 10^-5 M
Description: Cytotoxicity against human K562 cells assessed as tumor growth inhibition at 10^-5 M after 48 hrs by sulforhodamine B assay

[21] = test system: TK-10; settings: Homo sapiens, 10^-5 M
Description: Cytotoxicity against human TK10 cells assessed as tumor growth inhibition at 10^-5 M after 48 hrs by sulforhodamine B assay

[22] = test system: HOP-62; settings: Homo sapiens, 10^-5 M
Description: Cytotoxicity against human HOP62 cells assessed as tumor growth inhibition at 10^-5 M after 48 hrs by sulforhodamine B assay

[23] = test system: SK-OV-3; settings: Homo sapiens, 10^-5 M
Description: Cytotoxicity against human SKOV3 cells assessed as tumor growth inhibition at 10^-5 M after 48 hrs by sulforhodamine B assay

[24] = test system: PC-3; settings: Homo sapiens, 10^-5 M
Description: Cytotoxicity against human PC3 cells assessed as tumor growth inhibition at 10^-5 M after 48 hrs by sulforhodamine B assay

[25] = test system: NCI-H522; settings: Homo sapiens, 10^-5 M
Description: Cytotoxicity against human NCI-H522 cells assessed as tumor growth inhibition at 10^-5 M after 48 hrs by sulforhodamine B assay

[26] = test system: CAKI-1; settings: Homo sapiens, 10^-5 M
Description: Cytotoxicity against human Caki1 cells assessed as tumor growth inhibition at 10^-5 M after 48 hrs by sulforhodamine B assay

[27] = test system: COLO 205; settings: Homo sapiens, 10^-5 M
Description: Cytotoxicity against human COLO205 cells assessed as tumor growth inhibition at 10^-5 M after 48 hrs by sulforhodamine B assay

[28] = test system: UO-31; settings: Homo sapiens, 10^-5 M
Description: Cytotoxicity against human UO31 cells assessed as tumor growth inhibition at 10^-5 M after 48 hrs by sulforhodamine B assay

[29] = test system: SW-620; settings: Homo sapiens, 10^-5 M
Description: Cytotoxicity against human SW620 cells assessed as tumor growth inhibition at 10^-5 M after 48 hrs by sulforhodamine B assay

[30] = test system: A498; settings: Homo sapiens, 10^-5 M
Description: Cytotoxicity against human A498 cells assessed as tumor growth inhibition at 10^-5 M after 48 hrs by sulforhodamine B assay

[31] = test system: Hs-578T; settings: Homo sapiens, 10^-5 M
Description: Cytotoxicity against human Hs 578T cells assessed as tumor growth inhibition at 10^-5 M after 48 hrs by sulforhodamine B assay

[32] = test system: SF-268; settings: Homo sapiens, 10^-5 M
Description: Cytotoxicity against human SF268 cells assessed as tumor growth inhibition at 10^-5 M after 48 hrs by sulforhodamine B assay

[33] = test system: T47D; settings: Homo sapiens, 10^-5 M
Description: Cytotoxicity against human T47D cells assessed as tumor growth inhibition at 10^-5 M after 48 hrs by sulforhodamine B assay

[34] = test system: OVCAR-3; settings: Homo sapiens, 10^-5 M
Description: Cytotoxicity against human OVCAR3 cells assessed as tumor growth inhibition at 10^-5 M after 48 hrs by sulforhodamine B assay

[35] = test system: CCRF-CEM; settings: Homo sapiens, 10^-5 M
Description: Cytotoxicity against human CCRF-CEM cells assessed as tumor growth inhibition at 10^-5 M after 48 hrs by sulforhodamine B assay

[36] = test system: SR; settings: Homo sapiens, 10^-5 M
Description: Cytotoxicity against human SR cells assessed as tumor growth inhibition at 10^-5 M after 48 hrs by sulforhodamine B assay

[37] = test system: IGROV-1; settings: Homo sapiens, 10^-5 M
Description: Cytotoxicity against human IGROV1 cells assessed as tumor growth inhibition at 10^-5 M after 48 hrs by sulforhodamine B assay

[38] = test system: RPMI-8226; settings: Homo sapiens, 10^-5 M
Description: Cytotoxicity against human RPMI8226 cells assessed as tumor growth inhibition at 10^-5 M after 48 hrs by sulforhodamine B assay

[39] = test system: HT-29; settings: Homo sapiens, 10^-5 M
Description: Cytotoxicity against human HT-29 cells assessed as tumor growth inhibition at 10^-5 M after 48 hrs by sulforhodamine B assay

[40] = test system: A549; settings: Homo sapiens, 10^-5 M
Description: Cytotoxicity against human A549 cells assessed as tumor growth inhibition at 10^-5 M after 48 hrs by sulforhodamine B assay

[41] = test system: HCC 2998; settings: Homo sapiens, 10^-5 M
Description: Cytotoxicity against human HCC2998 cells assessed as tumor growth inhibition at 10^-5 M after 48 hrs by sulforhodamine B assay

[42] = test system: MDA-MB-435; settings: Homo sapiens, 10^-5 M
Description: Cytotoxicity against human MDA-MB-435 cells assessed as tumor growth inhibition at 10^-5 M after 48 hrs by sulforhodamine B assay

[43] = test system: BT-549; settings: Homo sapiens, 10^-5 M
Description: Cytotoxicity against human BT549 cells assessed as tumor growth inhibition at 10^-5 M after 48 hrs by sulforhodamine B assay

[44] = test system: OVCAR-4; settings: Homo sapiens, 10'-5 M
Description: Cytotoxicity against human OVCAR4 cells assessed as tumor growth inhibition at 10^-5 M after 48 hrs by sulforhodamine B assay

[45] = test system: NCI-H23; settings: Homo sapiens, 10^-5 M
Description: Cytotoxicity against human NCI-H23 cells assessed as tumor growth inhibition at 10^-5 M after 48 hrs by sulforhodamine B assay

[46] = test system: Malme-3M; settings: Homo sapiens, 10^-5 M
Description: Cytotoxicity against human MALME-3M cells assessed as tumor growth inhibition at 10^-5 M after 48 hrs by sulforhodamine B assay

[47] = test system: HCT-116; settings: Homo sapiens, 10^-5 M
Description: Cytotoxicity against human HCT116 cells assessed as tumor growth inhibition at 10^-5 M after 48 hrs by sulforhodamine B assay

[48] = test system: HCT-15; settings: Homo sapiens, 10^-5 M
Description: Cytotoxicity against human HCT15 cells assessed as tumor growth inhibition at 10^-5 M after 48 hrs by sulforhodamine B assay

[49] = test system: NCI/ADR-RES; settings: Homo sapiens, 10^-5 M
Description: Cytotoxicity against human NCI-ADR-RES cells assessed as tumor growth inhibition at 10^-5 M after 48 hrs by sulforhodamine B assay

[50] = test system: SN12C; settings: Homo sapiens, 10^-5 M
Description: Cytotoxicity against human SN12C cells assessed as tumor growth inhibition at 10^-5 M after 48 hrs by sulforhodamine B assay

[51] = test system: 786-0; settings: Homo sapiens, 10^-5 M
Description: Cytotoxicity against human 786-0 cells assessed as tumor growth inhibition at 10^-5 M after 48 hrs by sulforhodamine B assay

[52] = test system: MOLT-4; settings: Homo sapiens, 10^-5 M
Description: Cytotoxicity against human MOLT4 cells assessed as tumor growth inhibition at 10^-5 M after 48 hrs by sulforhodamine B assay

[53] = test system: SK-MEL-5; settings: Homo sapiens, 10^-5 M
Description: Cytotoxicity against human SK-MEL-5 cells assessed as tumor growth inhibition at 10^-5 M after 48 hrs by sulforhodamine B assay

[54] = test system: HOP-92; settings: Homo sapiens, 10^-5 M
Description: Cytotoxicity against human HOP92 cells assessed as tumor growth inhibition at 10^-5 M after 48 hrs by sulforhodamine B assay

[55] = test system: OVCAR-5; settings: Homo sapiens, 10^-5 M
Description: Cytotoxicity against human OVCAR5 cells assessed as tumor growth inhibition at 10^-5 M after 48 hrs by sulforhodamine B assay

[56] = test system: ACHN; settings: Homo sapiens, 10^-5 M
Description: Cytotoxicity against human ACHN cells assessed as tumor growth inhibition at 10^-5 M after 48 hrs by sulforhodamine B assay

[57] = test system: MDA-MB-468; settings: Homo sapiens, 10^-5 M
Description: Cytotoxicity against human MDA-MB-468 cells assessed as tumor growth inhibition at 10^-5 M after 48 hrs by sulforhodamine B assay

[58] = test system: SK-MEL-2; settings: Homo sapiens, 10^-5 M
Description: Cytotoxicity against human SK-MEL-2 cells assessed as tumor growth inhibition at 10^-5 M after 48 hrs by sulforhodamine B assay

[59] = test system: MDA-MB-231; settings: Homo sapiens, 10^-5 M
Description: Cytotoxicity against human MDA-MB-231 cells assessed as tumor growth inhibition at 10^-5 M after 48 hrs by sulforhodamine B assay

[60] = test system: SK-MEL-28; settings: Homo sapiens, 10^-5 M
Description: Cytotoxicity against human SK-MEL-28 cells assessed as tumor growth inhibition at 10^-5 M after 48 hrs by sulforhodamine B assay

`O=C1NC(=S)NC(=O)C1=Cc1cn(CC(O)Cn2cc(C=C3C(=O)NC(=S)NC3=O)c3ccccc32)c2ccccc12` showed an IC50 [1] of 7 µM.
`COc1cc(Cc2cnc(N)nc2N)cc(OC)c1OC` was tested, and the TGI [2] was “inactive”, the TGI [3] was “inactive” and the TGI [4] was “inactive”. For the same compound, the TGI [5] was “inactive”, the TGI [6] was “inactive” and the TGI [7] was “inactive”. The TGI [8] was “inactive”, the TGI [9] was “inactive” and the TGI [10] was “inactive”. For the same compound, the TGI [11] was “inactive”, the TGI [12] was “inactive” and the TGI [13] was “inactive”. For the same compound, the TGI [14] was “inactive”, the TGI [15] was “inactive” and the TGI [16] was “inactive”. For the same compound, the TGI [17] was “inactive”, the TGI [18] was “inactive” and the TGI [19] was “inactive”. For the same compound, the TGI [20] was “inactive”, the TGI [21] was “inactive” and the TGI [22] was “inactive”. The TGI [23] was “inactive”, the TGI [24] was “inactive” and the TGI [25] was “inactive”. For the same compound, the TGI [26] was “inactive”, the TGI [27] was “inactive” and the TGI [28] was “inactive”. The TGI [29] was “inactive”, the TGI [30] was “inactive” and the TGI [31] was “inactive”. For the same compound, the TGI [32] was “inactive”, the TGI [33] was “inactive” and the TGI [34] was “inactive”. The TGI [35] was “inactive”, the TGI [36] was “inactive” and the TGI [37] was “inactive”. For the same compound, the TGI [38] was “inactive”, the TGI [39] was “inactive” and the TGI [40] was “inactive”. For the same compound, the TGI [41] was “inactive”, the TGI [42] was “inactive” and the TGI [43] was “inactive”. The TGI [44] was “inactive”, the TGI [45] was “inactive” and the TGI [46] was “inactive”. The TGI [47] was “inactive”, the TGI [48] was “inactive” and the TGI [49] was “inactive”. The TGI [50] was “inactive”, the TGI [51] was “inactive” and the TGI [52] was “inactive”. For the same compound, the TGI [53] was “inactive”, the TGI [54] was “inactive” and the TGI [55] was “inactive”. For the same compound, the TGI [56] was “inactive”, the TGI [57] was “inactive” and the TGI [58] was “inactive”. For the same compound, the TGI [59] was “inactive” and the TGI [60] was “inactive”.
`O=C1Nc2ccc([N+](=O)[O-])cc2/C1=C/c1cn(CC(O)Cn2cc(/C=C3\C(=O)Nc4ccc([N+](=O)[O-])cc43)c3ccccc32)c2ccccc12` (stereo unspecified) was tested, and the IC50 [1] was 0.7 µM.
